Entries after “also recorded” stand apart in the source; their conditions may differ. One block for each molecule: values may come before it.
Assays:
Assay type in all cases: physicochemical
[1] = Stability evaluation of crystals A, B and C (mixture of equal amounts in supersaturated solution); details: for form of the crystal obtained: equal amounts of crystals A, B and C, one day; for relative stability among crystals A, B and C: room temperature or 40° C.
Procedure: To a supersaturated solution of compound 1 using the solvents shown in Table 8 was added a mixture of equal amounts of crystals A, B and C at room temperature or 40° C., and the form of the crystal obtained one day later was observed using powder X-ray diffraction.

[2] = Relationship between water content of solvent and crystal form (heptane/ethanol 16:3); details: for crystal form: overnight
Procedure: To a saturated solution of crystal C in a mixed solvent of heptane and ethanol (volume ratio 16:3) were added crystal C (100 mg) and crystal D (100 mg) at a temperature shown in Table 2, water in the amount shown in Table 6 was further added, and the mixture was stood overnight. The water content of the solution after the standing was measured by the Karl Fischer method, and the crystal form of compound 1 was measured by powder X-ray diffraction. The amount of the water added is shown in mass % relative to the mass of the whole solvent.

[3] = Hygroscopicity evaluation by dynamic water adsorption measuring apparatus; details: 25° C.; for variation in the mass (weight) with increasing relative humidity: 5-95% RH stepwise; for hygroscopicity: 5-95% RH
Procedure: The hygroscopicity of Examples 1, 3 and Comparative Example 1 was evaluated by a dynamic water adsorption measuring apparatus. A sample mounting part of the apparatus was maintained at 25° C., and the relative humidity (RH) was set stepwisely within the range of 5-95% RH. The humidity was controlled by changing the relative flow of 0% RH dry nitrogen and 100% RH humidified nitrogen. The sample weight was confirmed at 2 min intervals by a micro balance, and the humidity was sequentially changed at the time point when the weight shift range for 5 min was below 0.01%.

[4] = Thermal stability of crystals A and D (oven heating overnight, powder X-ray diffraction); details: for crystal form after heating: oven, overnight
Procedure: Crystals A and D were heated in an oven at 50° C. or 70° C. overnight, and transition of each crystal was confirmed by powder X-ray diffraction.

[5] = Stability evaluation of crystal A: slurry in solvents, crystal form by powder X-ray diffraction and DSC; details: room temperature, 2 days
Procedure: Crystal A was added in excess to the solvents described in Table 1 to give a slurry, which was stood at room temperature for 2 days, and the crystal form thereof was measured using powder X-ray diffraction and differential scanning calorimeter (DSC).

[6] = single crystal form in heptane/ethanol (16:3) with water content of less than 0.5%, stood overnight

Compound: C[C@H]1C2N(C(=O)CN(C)N2C(=O)NCc2ccccc2)[C@@H](Cc2ccc(O)cc2)C(=O)N1Cc1cccc2cccnc12 (stereo partly drawn) [compound 1, (6S,9S)—N-benzyl-6-(4-hydroxybenzyl)-2,9-dimethyl-4,7-dioxo-8-(quinolin-8-ylmethyl)octahydro-1H-pyrazino[2,1-c][1,2,4]triazine-1-carboxamide]
form of the crystal obtained ([1]; MTBE, 40° C.): crystal C | form of the crystal obtained ([1]; MTBE, room temperature): crystal C | form of the crystal obtained ([1]; ethyl acetate, 40° C.): crystal C | form of the crystal obtained ([1]; ethyl acetate, room temperature): crystal C | form of the crystal obtained ([1]; isopropanol, 40° C.): crystal C | form of the crystal obtained ([1]; isopropanol, room temperature): crystal C | form of the crystal obtained ([1]; isopropyl acetate, 40° C.): crystal C | form of the crystal obtained ([1]; isopropyl acetate, room temperature): crystal C | form of the crystal obtained ([1]; water, 40° C.): crystal A | form of the crystal obtained ([1]; water, room temperature): crystal A | crystal form ([2]; crystal C + crystal D (100 mg each) in heptane/ethanol 16:3, 5° C., water added 0 mass %, water content 0.32%): crystal C | crystal form ([2]; crystal C + crystal D (100 mg each) in heptane/ethanol 16:3, 5° C., water added 0.5 mass %, water content 0.93%): crystal D | crystal form ([2]; crystal C + crystal D (100 mg each) in heptane/ethanol 16:3, 5° C., water added 1.0 mass %, water content 1.56%): crystal D | crystal form ([2]; crystal C + crystal D (100 mg each) in heptane/ethanol 16:3, 40° C., water added 0 mass %, water content 0.33%): crystal C | crystal form ([2]; crystal C + crystal D (100 mg each) in heptane/ethanol 16:3, 40° C., water added 0.5 mass %, water content 0.94%): crystal D | crystal form ([2]; crystal C + crystal D (100 mg each) in heptane/ethanol 16:3, 40° C., water added 1.0 mass %, water content 1.55%): crystal D | crystal form ([2]; crystal C + crystal D (100 mg each) in heptane/ethanol 16:3, room temperature, water added 0 mass %, water content 0.33%): crystal C | crystal form ([2]; crystal C + crystal D (100 mg each) in heptane/ethanol 16:3, room temperature, water added 0.5 mass %, water content 0.93%): crystal D | crystal form ([2]; crystal C + crystal D (100 mg each) in heptane/ethanol 16:3, room temperature, water added 1.0 mass %, water content 1.57%): crystal D | crystal form obtained ([2]; crystal C + crystal D in heptane/ethanol 16:3, amount of water further added exceeded 2 mass %): crystal A was obtained | crystal form obtained ([2]; crystal C + crystal D in heptane/ethanol 16:3, water content less than 0.5%): crystal C was obtained | crystal form obtained ([2]; crystal C + crystal D in heptane/ethanol 16:3, water content not less than 0.5%): crystal D was obtained

Compound: C[C@H]1C2N(C(=O)CN(C)N2C(=O)NCc2ccccc2)[C@@H](Cc2ccc(O)cc2)C(=O)N1Cc1cccc2cccnc12 (stereo partly drawn) [Comparative Example 1, (6S,9S)—N-benzyl-6-(4-hydroxybenzyl)-2,9-dimethyl-4,7-dioxo-8-(quinolin-8-ylmethyl)octahydro-1H-pyrazino[2,1-c][1,2,4]triazine-1-carboxamide]
variation in the mass (weight) with increasing relative humidity [3]: weight increased along with an increase in the humidity

Compound: C[C@H]1C2N(C(=O)CN(C)N2C(=O)NCc2ccccc2)[C@@H](Cc2ccc(O)cc2)C(=O)N1Cc1cccc2cccnc12 (stereo partly drawn) [crystal A, (6S,9S)—N-benzyl-6-(4-hydroxybenzyl)-2,9-dimethyl-4,7-dioxo-8-(quinolin-8-ylmethyl)octahydro-1H-pyrazino[2,1-c][1,2,4]triazine-1-carboxamide]
relative stability among crystals A, B and C ([1]; water): most stable in water | crystal form ([5]; crystal A slurry in MTBE): transition did not occur; also recorded: crystal A | crystal form ([5]; crystal A slurry in acetonitrile): transition did not occur; also recorded: crystal A | crystal form ([5]; crystal A slurry in ethanol): transition to crystal C occurred gradually | crystal form ([5]; crystal A slurry in ethyl acetate): transition to crystal C occurred gradually | crystal form ([5]; crystal A slurry in isopropanol): transition to crystal C occurred gradually | crystal form ([5]; crystal A slurry in isopropyl acetate): transition did not occur; also recorded: crystal A | crystal form ([5]; crystal A slurry in methanol): transition to crystal B occurred | crystal form ([5]; crystal A slurry in methylethyl ketone): transition did not occur; also recorded: crystal A | crystal form ([5]; crystal A slurry in tetrahydrofuran): transition to an amorphous form occurred | crystal form ([5]; crystal A slurry in water): transition did not occur; also recorded: crystal A | hygroscopicity [3]: low | variation in the mass (weight) with increasing relative humidity ([3]; listed as Example 1): weight did not increase | relative stability to heat ([4]; crystal A versus crystal D, 50° C. overnight): more stable to heat than crystal D | crystal form after heating ([4]; 50° C.): did not show transition; also recorded: not transited; also recorded: crystal A | crystal form after heating ([4]; 70° C.): transits to an amorphous form

Now from value to molecule, other results behind:

relative stability among crystals A, B and C ([1]; isopropanol, isopropyl acetate, MTBE or ethyl acetate): most stable in other nonaqueous solvents | transition of crystal form ([2]; single crystal form in heptane/ethanol (16:3) with water content of not less than 0.5%, left overnight): transited to crystal D | hygroscopicity [3]: low | variation in the mass (weight) with increasing relative humidity ([3]; listed as Example 3): weight did not increase
Compound: C[C@H]1C2N(C(=O)CN(C)N2C(=O)NCc2ccccc2)[C@@H](Cc2ccc(O)cc2)C(=O)N1Cc1cccc2cccnc12 (stereo partly drawn) [crystal C, (6S,9S)—N-benzyl-6-(4-hydroxybenzyl)-2,9-dimethyl-4,7-dioxo-8-(quinolin-8-ylmethyl)octahydro-1H-pyrazino[2,1-c][1,2,4]triazine-1-carboxamide]
transition of crystal form [2, 6]: transition of crystal form did not occur; also recorded: not transited

crystal form after heating ([4]; 70° C.): transits to an amorphous form
Compound: C[C@H]1C2N(C(=O)CN(C)N2C(=O)NCc2ccccc2)[C@@H](Cc2ccc(O)cc2)C(=O)N1Cc1cccc2cccnc12 (stereo partly drawn) [crystal D, (6S,9S)—N-benzyl-6-(4-hydroxybenzyl)-2,9-dimethyl-4,7-dioxo-8-(quinolin-8-ylmethyl)octahydro-1H-pyrazino[2,1-c][1,2,4]triazine-1-carboxamide]
transition of crystal form [2, 6]: transition to crystal C occurred; also recorded: transits to crystal C | crystal form after heating ([4]; 50° C.): A part of crystal D transits to an amorphous form; also recorded: mixture of crystal D

Reference: patent US20160318938A1, “CRYSTALS (2) OF PYRAZINO[2,1-c][1,2,4]TRIAZINE COMPOUND” (PRISM PHARMA CO., LTD., priority 2013, published 2016)
